Like-named read-outs stand apart in the source and are kept apart here.
Legend:
Format in all cases: cell-based
[1] = test system: Mycobacterium smegmatis (FH 6498); assay: Serial dilution test for MIC, Mueller-Hinton broth
[2] = test system: S. aureus (control strain); assay: Serial dilution test for MIC, Mueller-Hinton broth (control strain)
[3] = test system: Corynebacterium diphtheriae (ATCC 27010); assay: microbe, parasite or virus in culture
[4] = test system: Nocardia brasiliensis (ATCC 19296); assay: microbe, parasite or virus in culture
[5] = test system: Nocardia abscessus (BAA 279); assay: microbe, parasite or virus in culture
[6] = test system: Mycobacterium phlei (ATCC 1298); assay: microbe, parasite or virus in culture
[7] = serial dilution, 48 hours at 37° C., approximately 10 Ex 6 CFU/ml
[8] = 6.25 μg per disc (17 nmol per disc), 48 hrs at 37° C.

| Structure (SMILES) | minimum inhibitory concentration (MIC), Mycobacterium smegmatis (FH 6498) [1] | minimum inhibitory concentration (MIC), S. aureus (control strain) [2] | Inhibition zone size, Corynebacterium diphtheriae (ATCC 27010) [3] | Inhibition zone size, Nocardia brasiliensis (ATCC 19296) [4] | Inhibition zone size, Nocardia abscessus (BAA 279) [5] | Inhibition zone size, Mycobacterium phlei (ATCC 1298) [6] | also measured |
| --- | --- | --- | --- | --- | --- | --- | --- |
| CCCCCCCCCCCCCCCOP1(=O)OC[C@H]2COC(=O)C2=C(C)O1 (stereo partly shown) [Cyclipostin R] | <0.5 | >64 |  |  |  |  |  |
| CCCCCCCCCCCCCCCCOP1(=O)OC[C@H]2COC(=O)C2=C(C)O1 (stereo partly shown) [Cyclipostin P] | <0.5 | >64 | 10 mm | 47 mm | 28 mm | 35 mm |  |
| CCCCCCCCCCCCCCCCOP1(=O)OCC2COC(=O)C2=C(CCC)O1 (stereo not shown) [Cyclipostin T] |  |  |  |  |  |  | zone of inhibition at 20 µg/disc ([3]; Corynebacterium diphtheriae, ATCC27010, 20 μg per disc, 48 hrs at 37° C., read-out: Inhibition zone size, Corynebacterium diphtheriae (ATCC 27010)): 12 mm; minimum inhibitory concentration (MIC), Mycobacterium smegmatis (FH 6498) [1, 7]: <0.5; zone of inhibition at 20 µg/disc ([4]; Nocardia brasiliensis, ATCC19296, 20 μg per disc, 48 hrs at 37° C., read-out: Inhibition zone size, Nocardia brasiliensis (ATCC 19296)): 38 mm; zone of inhibition at 20 µg/disc ([5]; Nocardia abscessus, BAA279, 20 μg per disc, 48 hrs at 37° C., read-out: Inhibition zone size, Nocardia abscessus (BAA 279)): 9 mm; minimum inhibitory concentration (MIC), S. aureus (control strain) [2, 7]: >64; zone of inhibition at 20 µg/disc ([6]; Mycolicibacterium phlei, ATCC1298, 20 μg per disc, 48 hrs at 37° C., read-out: Inhibition zone size, Mycobacterium phlei (ATCC 1298)): 30 mm |
| CCCC1=C2C(=O)OC[C@@H]2COP(=O)(OCCCCCCCCCCCCCC(C)C)O1 (stereo partly shown) [Cyclipostin T2] | <0.5 | >64 | 20 mm | 39 mm | 10 mm | 47 mm |  |
| CC1(C)S[C@@H]2[C@H](NC(=O)Cc3ccccc3)C(=O)N2[C@H]1C(=O)O [Penicillin G, reference compound] |  |  |  |  |  |  | Inhibition zone size, Corynebacterium diphtheriae (ATCC 27010) [3, 8]: 33 mm; Inhibition zone size, Nocardia brasiliensis (ATCC 19296) [4, 8]: 0 mm; Inhibition zone size, Nocardia abscessus (BAA 279) [5, 8]: 16 mm; Inhibition zone size, Mycobacterium phlei (ATCC 1298) [6, 8]: 0 mm |
| CO[C@H]1/C=C/O[C@@]2(C)Oc3c(C)c(O)c4c(O)c(c(/C=N/N5CCN(C)CC5)c(O)c4c3C2=O)NC(=O)/C(C)=C\C=C\[C@H](C)[C@H](O)[C@@H](C)[C@@H](O)[C@@H](C)[C@H](OC(C)=O)[C@@H]1C [Rifampicin, reference compound] |  |  |  |  |  |  | zone of inhibition at 30 µg/disc ([3]; Corynebacterium diphtheriae, ATCC27010, 30 μg per disc (36 nmol per disc), 48 hrs at 37° C., read-out: Inhibition zone size, Corynebacterium diphtheriae (ATCC 27010)): 47 mm; zone of inhibition at 30 µg/disc ([4]; Nocardia brasiliensis, ATCC19296, 30 μg per disc (36 nmol per disc), 48 hrs at 37° C., read-out: Inhibition zone size, Nocardia brasiliensis (ATCC 19296)): 10 mm; zone of inhibition at 30 µg/disc ([5]; Nocardia abscessus, BAA279, 30 μg per disc (36 nmol per disc), 48 hrs at 37° C., read-out: Inhibition zone size, Nocardia abscessus (BAA 279)): 12 mm; zone of inhibition at 30 µg/disc ([6]; Mycolicibacterium phlei, ATCC1298, 30 μg per disc (36 nmol per disc), 48 hrs at 37° C., read-out: Inhibition zone size, Mycobacterium phlei (ATCC 1298)): 55 mm |
